# Assay results published in patent publication US10858355B2, “Inhibitors of phosphatidylinositol 3-kinase gamma” (AstraZeneca AB, priority 2016, dated 2020).
# Target: recombinant human PI3Kγ (aa144-1102)-6His (Homo sapiens (Human), UniProt P48736)
# Assay: Test A: Enzymatic Activity Assay for Rec Human PI3Kγ (ADP-Glo)
# Type: biochemical
# Conditions: 20 μM ATP, 80 μM DiC8-PIP2, 1.2 nM PI3Kγ, 15 min pre-incubation, 60 min reaction
# Description: Pharmacological Activity Test A: Enzymatic Activity Assay for Rec Human PI3Kγ
# The activity of recombinant human PI3Kγ (aa144-1102)-6His was determined by measuring the ADP level after phosphorylation of DiC8-PIP2 using a commercially available ADP-Glo™ kit from Promega. The assay was carried out in white low volume 384 well plates in a final volume of 14 μl at rt. The assay conditions contained the following: 50 mM Tris buffer pH 7.4, 2.1 mM DTT, 3 mM MgCl2, 0.05% CHAPS, 20 μM ATP, 80 μM DiC8-PIP2 and 1.2 nM PI3Kγ. […] Routinely, inhibitors were pre-incubated with 3 μl of PI3Kγ for 15 min prior to the addition of […] substrate mixture for a further 60 min enzyme reaction. The phosphorylation was stopped with the addition of 3 μl ADP-Glo™ reagent (stop solution) followed by a 40 min incubation. Prior to detection 6 μl of ADP-Glo™ Kinase Detection Reagent was added and the plates were read in a micro plate reader using a Luminescence filter.
# Chain of recombinant human PI3Kγ (aa144-1102)-6His (P48736 144-1102): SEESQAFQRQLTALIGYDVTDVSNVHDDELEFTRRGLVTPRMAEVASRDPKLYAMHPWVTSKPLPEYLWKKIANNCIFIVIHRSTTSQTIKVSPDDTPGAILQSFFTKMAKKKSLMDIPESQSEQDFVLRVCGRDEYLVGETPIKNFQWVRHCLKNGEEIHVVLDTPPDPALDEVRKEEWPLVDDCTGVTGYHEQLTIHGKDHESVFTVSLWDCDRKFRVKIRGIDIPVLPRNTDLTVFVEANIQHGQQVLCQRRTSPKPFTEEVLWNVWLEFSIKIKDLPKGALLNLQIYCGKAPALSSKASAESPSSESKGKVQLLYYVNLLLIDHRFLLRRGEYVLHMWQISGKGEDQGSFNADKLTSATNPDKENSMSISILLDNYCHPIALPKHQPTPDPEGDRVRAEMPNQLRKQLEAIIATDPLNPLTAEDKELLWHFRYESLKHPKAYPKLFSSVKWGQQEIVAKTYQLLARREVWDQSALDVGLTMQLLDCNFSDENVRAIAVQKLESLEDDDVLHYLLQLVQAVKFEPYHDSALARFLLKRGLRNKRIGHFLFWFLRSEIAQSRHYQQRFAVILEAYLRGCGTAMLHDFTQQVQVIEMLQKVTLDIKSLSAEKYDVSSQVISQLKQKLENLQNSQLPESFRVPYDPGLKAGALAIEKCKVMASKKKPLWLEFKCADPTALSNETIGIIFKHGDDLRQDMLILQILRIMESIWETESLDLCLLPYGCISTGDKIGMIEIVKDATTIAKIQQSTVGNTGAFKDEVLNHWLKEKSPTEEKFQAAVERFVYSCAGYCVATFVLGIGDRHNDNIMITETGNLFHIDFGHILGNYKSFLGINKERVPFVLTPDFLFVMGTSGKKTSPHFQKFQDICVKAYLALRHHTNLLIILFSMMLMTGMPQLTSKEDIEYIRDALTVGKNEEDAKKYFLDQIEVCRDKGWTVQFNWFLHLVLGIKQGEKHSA
row,Compound,"PI3Kγ activity, pIC50"
1,"CNS(=O)(=O)c1cc(-c2sc(NC(C)=O)nc2C)cc2c1C(=O)N([C@@H](C)C(C)(C)C)C2 [Example 33, N-(5-{2-[(2S)-3,3-Dimethylbutan-2-yl]-7-(methylsulfamoyl)-1-oxo-2,3-dihydro-1H-isoindol-5-yl}-4-methyl-1,3-thiazol-2-yl)acetamide]",8.8
2,"CNS(=O)(=O)c1cc(-c2sc(NC(C)=O)nc2C)cc2c1C(=O)N(C(C)(C)C)C2 [Example 34, N-{5-[2-tert-Butyl-7-(methylsulfamoyl)-1-oxo-2,3-dihydro-1H-isoindol-5-yl]-4-methyl-1,3-thiazol-2-yl}acetamide]",8.8
3,"CNS(=O)(=O)c1cc(-c2sc(NC(C)=O)nc2C)cc2c1C(=O)N([C@@H](C)C(F)(F)F)C2 [Example 35, N-(4-Methyl-5-{7-(methylsulfamoyl)-1-oxo-2-[(2S)-1,1,1-trifluoropropan-2-yl]-2,3-dihydro-1H-isoindol-5-yl}-1,3-thiazol-2-yl)acetamide]",9.0
4,"CC(=O)Nc1nc(C)c(-c2cc3c(c(S(=O)(=O)Nc4cccc(C#N)c4)c2)C(=O)N([C@@H](C)C2CC2)C3)s1 [Example 36, N-(5-{7-[(3-Cyanophenyl)sulfamoyl]-2-[(1S)-1-cyclopropylethyl]-1-oxo-2,3-dihydro-1H-isoindol-5-yl}-4-methyl-1,3-thiazol-2-yl)acetamide]",9.3
5,"CC(=O)Nc1nc(C)c(-c2cc3c(c(S(=O)(=O)Nc4cccc(C#N)c4)c2)C(=O)N(C(C)C)C3)s1 [Example 37, N-(5-{7-[(3-Cyanophenyl)sulfamoyl]-1-oxo-2-(propan-2-yl)-2,3-dihydro-1H-isoindol-5-yl}-4-methyl-1,3-thiazol-2-yl)acetamide]",9.0
